Results published in publication PMC3723537, “Structural Basis for Native Agonist and Synthetic Inhibitor Recognition by the Pseudomonas aeruginosa Quorum Sensing Regulator PqsR (MvfR)” (PLoS Pathogens, 2013).
Read-outs that look alike come from different tables or passages of the source.

Key:
PqsR [1] = biological target: T1, PqsR (Pseudomonas aeruginosa, UniProt Q9I4X0); conditions: cited from earlier work
T1 sequence (Q9I4X0 1-332): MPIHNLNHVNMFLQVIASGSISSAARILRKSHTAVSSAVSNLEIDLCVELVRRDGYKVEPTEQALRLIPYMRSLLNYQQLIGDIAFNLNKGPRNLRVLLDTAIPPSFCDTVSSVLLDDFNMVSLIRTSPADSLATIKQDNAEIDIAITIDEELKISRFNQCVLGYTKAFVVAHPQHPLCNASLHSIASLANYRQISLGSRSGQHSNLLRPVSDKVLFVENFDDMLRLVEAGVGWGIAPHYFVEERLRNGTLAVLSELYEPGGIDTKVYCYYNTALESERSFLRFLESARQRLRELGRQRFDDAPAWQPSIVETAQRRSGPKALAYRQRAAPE

PqsR Leu207Glu = PqsR Leu207Glu (Pseudomonas aeruginosa, UniProt Q9I4X0, L207E); test: Response of PqsR-6His ligand binding site variants to PQS and HHQ, pqsA'-lux in ΔpqsA ΔpqsH ΔpqsR strain; type: cell-based; conditions: Leu207Glu mutation; co-inducer 40 µM
PqsR [2] = biological target: T1, PqsR; test: cell-based; design: assayed for their agonist and antagonist activities in a whole P. aeruginosa bacterial cell assay; endogenous in cells; host or cells: P. aeruginosa PAO1 wild type, ΔpqsA or ΔpqsAH strains carrying a chromosomal (mini)CTX::pqsA'-lux fusion; conditions: Figure 2 (AQs); P. aeruginosa ΔpqsA CTX::pqsA'-lux strain; read-out: Agonist EC50 ±SD
PqsR [3] = biological target: T1, PqsR; test: cell-based; design: assayed for their agonist and antagonist activities in a whole P. aeruginosa bacterial cell assay; endogenous in cells; host or cells: P. aeruginosa PAO1 wild type, ΔpqsA or ΔpqsAH strains carrying a chromosomal (mini)CTX::pqsA'-lux fusion
PqsR [4] = biological target: T1, PqsR; design: assayed for their agonist and antagonist activities in a whole P. aeruginosa bacterial cell assay; endogenous in cells; host or cells: P. aeruginosa PAO1 wild type, ΔpqsA or ΔpqsAH strains carrying a chromosomal (mini)CTX::pqsA'-lux fusion; method as in PMID 17922753; conditions: whole P. aeruginosa cell assays; cited from earlier work
PqsR [5] = biological target: T1, PqsR; design: assayed for their agonist and antagonist activities in a whole P. aeruginosa bacterial cell assay; endogenous in cells; host or cells: P. aeruginosa PAO1 wild type, ΔpqsA or ΔpqsAH strains carrying a chromosomal (mini)CTX::pqsA'-lux fusion; method as in Xiao et al. [21]; conditions: different P. aeruginosa strain and reporter assay; ref Xiao et al. [21]; cited from earlier work
lecA = type: cell-based; conditions: P. aeruginosa PAO1, compared with control
phzA1 promoter = type: cell-based; conditions: 12.5 µM; data not shown
P. aeruginosa PAO1 [6] = test: Pyocyanin production, quantified spectrophotometrically; type: cell-based, Pseudomonas aeruginosa; conditions: PAO1 cultures, 50 or 100 µM
Protocol: (§1) The impact of 3-NH2-7Cl-C9-QZN on (a) AQ production was assayed by LC MS/MS after extracting bacterial cultures with acidified ethyl acetate; (b) pyocyanin was quantified spectrophotometrically and (c) biofilm development was examined using a Bioflux 200 microfluidics device (Fluxion Biosciences; in conjunction with GFP-labelled P. aeruginosa strains, [53]). All assays were performed in triplicate at least twice.

P. aeruginosa PAO1 [7] = test: AQ production by LC-MS/MS of culture extracts; type: cell-based, Pseudomonas aeruginosa; conditions: PAO1 grown with 200 µM; semi-quantitative
Protocol: as §1

P. aeruginosa = type: cell-based; conditions: GFP-tagged wild type, flow conditions
PqsR [8] = biological target: T1, PqsR; test: cell-based; design: assayed for their agonist and antagonist activities in a whole P. aeruginosa bacterial cell assay; endogenous in cells; host or cells: P. aeruginosa PAO1 wild type, ΔpqsA or ΔpqsAH strains carrying a chromosomal (mini)CTX::pqsA'-lux fusion; remark: listed apart in the source
PqsR [9] = biological target: T1, PqsR; type: cell-based; design: assayed for their agonist and antagonist activities in a whole P. aeruginosa bacterial cell assay; endogenous in cells; host or cells: P. aeruginosa PAO1 wild type, ΔpqsA or ΔpqsAH strains carrying a chromosomal (mini)CTX::pqsA'-lux fusion; conditions: 100 µM QZN; ΔpqsA mutant

CCCCCCCc1cc(=O)c2ccc(C(F)(F)F)cc2[nH]1 [7-CF3-substituted HHQ]
Agonist activity relative to HHQ (PqsR [1]): about 50%

CCCCCCCc1[nH]c2ccccc2c(=O)c1O [compound 1, 2-heptyl-3-hydroxy-4(1H)-quinolone]
Response, % of pqsA promoter activity with respect to strain expressing PqsR-6His (PqsR Leu207Glu): 39%
EC50 (PqsR [2]): 1.9 µM
EC50 (PqsR [3]; Figure 2 (AQs), P. aeruginosa ΔpqsAH CTX::pqsA'-lux strain, read-out: Agonist EC50 ±SD): 3.8 ± 1.6 µM
Induction of the pqsA promoter compared with HHQ (PqsR [3]; P. aeruginosa ΔpqsA ΔpqsH double mutant): ~3 fold
EC50 for PqsR-dependent activation of pqsA (PqsR [4]): low micromolar range
Induction compared with HHQ (PqsR [5]): 100 fold

CCCCCCCCCc1nc2cc(Cl)ccc2c(=O)n1N [compound 23]
Expression of lecA (lecA): reduced
Reduction of phzA1 promoter activity (phzA1 promoter): ~50%
Pyocyanin levels (P. aeruginosa PAO1 [6]): substantially reduced
Production of HHQ, NHQ, their N-oxides and PQS (P. aeruginosa PAO1 [7]): reduced to very low levels
Biofilm development (P. aeruginosa): reduced surface area coverage
IC50 (PqsR [8]): 5 ± 1.6 µM
PQS concentration that competitively overcomes QZN-mediated PqsR inhibition (PqsR [9]): above 25 µM
